Where a name gives a salt, the structure may show the parent alone. Read-outs that look alike come from different tables or passages of the source.
Columns and labels:
[1] = system: herpes simplex virus (HSV); assay: Antiviral testing against herpes simplex virus (Example 5); format: cell-based; conditions: concentration causing 50% protection against virus, PDR = poor dose response
[2] = system: human foreskin fibroblast cells; assay: Inhibition of cell proliferation (cytotoxicity) in herpesvirus screening; format: cell-based
[3] = system: HIV strain 2h, a primary pediatric clinical isolate; assay: Protein (p24) assay in PBMC cells with 2h; format: cell-based; conditions: read-out: ED50 2h/PBMC
[4] = system: influenza virus (FLU WSN); assay: Antiviral testing against influenza virus (Example 5); format: cell-based; conditions: FLU WSH, concentration causing 50% protection against virus
Varicella Zoster Virus = assay: Plaque reduction assay for VZV (Ellen strain); format: cell-based
Method: (§1) Additional antiviral testing was carried out to test the efficacy of compounds of the invention against human cytomegalovirus (HCMV) and another herpesvirus, Variecella Zoster Virus(VZV). The compounds tested were compound (1), the HCl salt of compound (1), Compounds 211, 43, 213 and 214.

rous sarcoma virus = assay: Antiviral testing against rous sarcoma virus (Example 5); format: cell-based; conditions: RSV, concentration causing 50% protection against virus, PDR = poor dose response
HIV strain MB48 = assay: Reverse transcriptase (RT) assay in MT-2 cells, HIV strain MB48; format: cell-based
[5] = system: human cytomegalovirus (HCMV); assay: Antiviral testing against human cytomegalovirus (Example 5); format: cell-based; conditions: concentration causing 50% protection against virus, PDR = poor dose response
Human Cytomegalovirus [6] = assay: Semi-automated CPE-inhibition assay for HCMV in human foreskin fibroblast cells; format: cell-based
Method: as §1

HIV strain MD48 = assay: MAGI assay on HeLa-MAGIC cells (plaque inhibition); format: cell-based; conditions: read-out: ED50 MD48/HeLa
[7] = system: Varicella Zaster Virus (VZV); assay: Ocular Varicella Zaster Virus infection in rabbits, intravenous therapy; format: in vivo, rabbit
[8] = Formulation for animal studies in DMSO/normal saline; format: physicochemical; conditions: 1:20 mixture of DMSO and normal saline (pH 2.7)
Method: (§2) Additional studies on stability, solubility, formulation and pharmokinetics were carried out. Plasma elimination and urinary recovery from mice following i.v. administeration were examined. Solubility of the compound in human, mouse, rat plasma and plasma ultrafiltrate were examined. Stability of the compound in human urine was determined.

U1/TNF latent infection = assay: Latent infection (U1/TNF); format: cell-based
[9] = system: MT-4, CEM, MT-2 cell lines, PBMCs; assay: Cell toxicity in testing against additional strains (Example 2); format: cell-based; conditions: Homo sapiens, MT2
Method: (§3) In these tests, the IC50 (50% inhibitory concentration) is the concentration resulting in 50% cellular toxicity. EC50 (median effective concentration) is the compound concentration that reduces infection by 50%. The effectiveness of a compound against a virus is expressed as TI50 (median therapeutic index) which is determined by the ratio IC50/EC50.
(§4) Testing was carried out as described in Example 1 against additional HIV strains. The compound CADA was active against the following viruses using the indicated cell lines:
(§5) IIIB strain of HIV-1/MT-4 cell line
(§6) AZT—resistant HIV-1/MT-2 and MT-4 cell lines
(§7) AZT—sensitive HIV-1/MT-4 cell line
A17, a strain of HIV-1 resistant to most of the non-nucleoside reverse transcriptase inhibitors/MT-2 and MT-4 cell lines,
WeJo, a clinical isolate of HIV-1/PBMCs (fresh human peripheral blood mononuclear cells).

[10] = Inhibition of cell proliferation (cytotoxicity) in herpesvirus screening; format: cell-based, human; conditions: human, human foreskin fibroblast cells, inhibit cell proliferation by 50%
HIV-1 Wejo = assay: PBL/HIV-1 Wejo infection; format: cell-based
From the text: (§8) The studies were based on activity of the compound against HIV-1 in peripheral blood lymphocytes. The results with different solutions and different batches of the compound confirm that the compound is active at submicromolar levels (EC50) and has low cytotoxicity (IC50).

in vitro [11] = format: in vitro ADME; conditions: rat, plasma
in vitro [12] = format: in vitro ADME; conditions: plasma
Method: as §2

HIV-1 Ba-L = assay: Mo-MO/HIV-1 Ba-L infection; format: cell-based; conditions: Human immunodeficiency virus 1, BAL; fresh
HIV protease = biological target: T1, HIV protease (Human immunodeficiency virus type 1 group M subtype B, UniProt P04585); assay: Protease activity (rp HPLC); format: biochemical; conditions: read-out: Protease Activity (rp HPLC) ID50
T1 construct: HIV protease

virus attachment = assay: Attachment (p 24 based); format: cell-based, HIV
Mo-MO = assay: Cytotoxicity in Mo-MO/HIV-1 Ba-L infection assay; format: cell-based; conditions: high test
cell fusion = assay: Cell fusion (mechanism of action studies); format: cell-based, HIV; conditions: preliminary mechanism of action studies
[13] = Plasma elimination in mice after i.v. administration; format: in vivo; conditions: mouse plasma, intravenous administration
Method: as §2

[14] = Solubility in human plasma; format: physicochemical; conditions: plasma or biological fluid, human plasma at 37° C.
Method: as §2

[15] = Stability in pH 4.0 buffer; format: physicochemical
Method: as §2

[16] = system: peripheral blood lymphocytes; assay: Cytotoxicity in PBL/HIV-1 Wejo infection assay; format: cell-based
From the text: as §8

[17] = biological target: T2, HIV reverse transcriptase (Human immunodeficiency virus type 1 group M subtype B, UniProt P04585); assay: RT activity (rA.dT); format: biochemical
T2 construct: HIV reverse transcriptase

[18] = system: HIV-1 (IIIB, AZT-resistant, AZT-sensitive, A17, WeJo), HIV-2, SIV; assay: Anti-HIV testing against additional strains (Example 2); format: cell-based; conditions: viruses and cell lines listed in Example 2
Method: (§9) Compounds of the invention were tested to assess the efficacy of the inhibitory effect of the compounds against HIV. The screen was carried out in a soluble formazan assay by the tetrazolium method according to Weislow et al., J. Natl. Cancer Inst. 81:577-586, 1989.
(§10) The compound was dissolved in dimethyl sulfoxide (DMSO) (final conc. less than 0.25%) and then diluted 1:100 in cell culture medium. Because DMSO is toxic to cells at concentration above 1%, the concentration of the compound in DMSO should be at least 10 uM before dilution with aqueous solution. Various concentrations of the compound were tested against HIV-1 in CEM-IW cells. After six days incubation at 37° C. in a 5% carbon dioxide atmosphere, viable cells were analyzed through addition of tetrazolium salt XTT followed by incubation to allow formazan color development. Cell viability was viewed microscopically and detected spectrophotometrically to quantitate formazan production.
as §4, §5, §6, §7
A17, a strain of HIV-1 resistant to most of the non-nucleoside reverse transcriptase inhibitors/MT-2 and MT-4 cell lines, […]

HIV-1 = assay: Anti-HIV soluble formazan (XTT tetrazolium) assay in CEM-IW cells; format: cell-based
Method: as §3, §9, §10

Human Cytomegalovirus [19] = assay: Plaque reduction assay for HCMV; format: cell-based; conditions: read-out: Human Cytomegalovirus EC50 (values in parentheses)
[20] = inhibit cell proliferation by 50%, HCMV CPE-inhibition screen, read-out: Human Cytomegalovirus CC50
[21] = inhibit cell proliferation by 50%, VZV screen, read-out: Varicella Zoster Virus CC50
[22] = Protein (p24) assay in PBMC cells
[23] = Reverse transcriptase (RT) assay in MT-2 cells, read-out: ED50 MB48/MT-2
[24] = MAGI assay on HeLa-MAGIC cells (plaque inhibition)
[25] = HCMV CPE-inhibition screen, read-out: Human Cytomegalovirus CC50
[26] = VZV screen, read-out: Varicella Zoster Virus CC50
[27] = Human immunodeficiency virus 1, 2 h, Protein (p24) assay in PBMC cells
[28] = Human immunodeficiency virus 1, MT2, Reverse transcriptase (RT) assay in MT-2 cells, read-out: ED50 MB48/MT-2
[29] = Human immunodeficiency virus 1, MAGI assay on HeLa-MAGIC cells (plaque inhibition)

C=C1CN(S(=O)(=O)c2ccccc2)CCCN(Cc2ccccc2)CCCN(S(=O)(=O)c2ccccc2)C1 (as salt: HCl) [Compound 211, 9-Benzyl-3-methylene-1,5-dibenzenesulfonyl-1,5,9-triazacyclododecane]
melting point: 135 to 136 °C

O=S(=O)(NCCCN(CCCNS(=O)(=O)c1ccccc1)Cc1ccccc1)c1ccccc1 (as salt: hydrochloride) [Compound 210, N-Benzylbis(3-benzenesulfonamidopropyl)amine]
melting point: 135 to 136 °C

C=C1CN(S(=O)(=O)c2ccc(C)cc2)CCCN(Cc2ccccc2)CCCN(S(=O)(=O)c2ccc(C)cc2)C1.Cl [1 · HCl]
IC50 [1]: PDR
CC50 [2, 20]: > 160000 nM
CC50 [2, 21]: > 160000 nM
EC50 [3, 22]: 150 nM
IC50 [4]: >50 µg/mL
EC50 (Varicella Zoster Virus): 3400 nM
IC50 (rous sarcoma virus): PDR
EC50 (HIV strain MB48; [23]): 200 nM
IC50 ([5]; HCMV): PDR
EC50 (Human Cytomegalovirus [6]): > 160000 nM
EC50 (HIV strain MD48; [24]): 100 nM
development of iritis and resolution of VZV disease, comparison of therapies ([7]; By day 5 PI): more effective than acyclovir therapy
iris disease (uveitis) development ([7]; rabbits, intravenous therapy): positive therapeutic response
VZV-induced corneal stromal disease development ([7]; rabbits, intravenous, CADA-HCl 5 and 10 mg/kg/day, ACV 20 mg/kg/day): effective in reducing the development of stromal disease

C=C1CN(S(=O)(=O)c2ccc(C)cc2)CCCN(Cc2ccccc2)CCCN(S(=O)(=O)c2ccc(C)cc2)C1 [Compound 1, 9-Benzyl-3-methylene-1,5-ditosyl-1,5,9-triazacyclododecane]
concentration at which the compound can be formulated [8]: 1200 nM
Latent Infection (U1/TNF latent infection): No inhibition
IC50 [9]: > 30000 nM
CC50 [10, 25]: 133000 nM
CC50 [10, 26]: 89000 nM
EC50 (HIV-1 Wejo; Human immunodeficiency virus 1, Batch 1, A): 550 nM
EC50 (HIV-1 Wejo; Human immunodeficiency virus 1, Batch 1, B): 160 nM
EC50 (HIV-1 Wejo; Human immunodeficiency virus 1, Batch 2): 650 nM
half-life (in vitro [11]): > 200 h
half-life (in vitro [12]; human): 126 h
half-life (in vitro [12]; mouse): > 200 h
EC50 ([3]; Human immunodeficiency virus 1, PBMC, 2 h): 150 nM
IC50 ([4]; listed as CADA (1)): > 50 µg/mL
IC50 ([4]; unidentified influenza virus, WSN): > 30 µg/mL
EC50 (Varicella Zoster Virus; Human alphaherpesvirus 3): 5300 nM
EC50 (HIV-1 Ba-L): 1500 nM
IC50 (rous sarcoma virus; read-out: IC50): > 30 µg/mL
IC50 (HIV protease): 40000 nM
Attachment (virus attachment): No Inhibition
IC50 (Mo-MO): > 30000 nM
inhibition of cell fusion (cell fusion): does not appear to inhibit
EC50 (HIV strain MB48; Human immunodeficiency virus 1, MT2, read-out: ED50 MB48/MT-2): 800 nM
IC50 ([5]; HCMV, listed as CADA (1)): > 50 µg/mL
IC50 ([5]; Human betaherpesvirus 5, HCMV, read-out: IC50): > 30 µg/mL
time detectable in plasma [13]: up to 2 hours
solubility [14]: 1 to 2 µg/mL
solubility ([14]; conversion of ug/mL): 2 to 3 µM
half-life [15]: 139 h
IC50 ([16]; Batch 1, B): > 100000 nM
IC50 ([16]; Batch 2): > 100000 nM
IC50 ([16]; Lymphocyte, Batch 1, A): > 100000 nM
RT activity (rA.dT) ID50 [17]: No Inhibition
EC50 (Human Cytomegalovirus [6]; Human betaherpesvirus 5): > 34000 nM
EC50 (HIV strain MD48; Human immunodeficiency virus 1, MAGI): 500 nM
EC50 [18]: 2000 nM
EC50 (HIV-1; Human immunodeficiency virus 1, HIV-1(6S)-AZT sensitive, CEM-IW cells, first test): 1200 nM
EC50 (HIV-1; Human immunodeficiency virus 1, second test, another batch, primary screen): 2400 nM

C=CCN(CCCN(CCCN(CC=C)S(=O)(=O)c1ccc(C)cc1)Cc1ccccc1)S(=O)(=O)c1ccc(C)cc1 [Compound 004, N-Benzylbis[3-(N′-2-propenyltoluenesulfonamido)propyl]amine dihydrogen sulfate]
EC50 [3, 22]: 500 nM
EC50 (HIV strain MB48; [23]): 2600 nM
EC50 (HIV strain MD48; [24]): 3500 nM

C=C1CN(S(=O)(=O)c2ccc(C)cc2)CCC[N+]([O-])(Cc2ccccc2)CCCN(S(=O)(=O)c2ccc(C)cc2)C1 [Compound 43, 9-Benzyl-3-methylene-1,5-ditosyl-1,5,9-triazacyclododecane-9-oxide]
CC50 [10, 25]: > 170000 nM
CC50 [10, 26]: > 170000 nM
EC50 [3, 27]: 500 nM
EC50 (Varicella Zoster Virus; Human alphaherpesvirus 3): 24300 nM
EC50 (HIV strain MB48; [28]): 1800 nM
EC50 (Human Cytomegalovirus [6]; Human betaherpesvirus 5): > 170000 nM
EC50 (HIV strain MD48; [29]): 3500 nM

C=C1CN(S(=O)(=O)c2ccccc2)CCCN(Cc2ccccc2)CCCN(S(=O)(=O)c2ccccc2)C1 [Compound 211, 9-Benzyl-3-methylene-1,5-dibenzenesulfonyl-1,5,9-triazacyclododecane]
CC50 [10, 25]: > 170000 nM
CC50 [10, 26]: > 170000 nM
EC50 [3, 27]: 500 nM
EC50 (Varicella Zoster Virus; Human alphaherpesvirus 3): 91700 nM
EC50 (HIV strain MB48; [28]): 1900 nM
EC50 (Human Cytomegalovirus [6]; Human betaherpesvirus 5): > 170000 nM
EC50 (HIV strain MD48; [29]): 1500 nM

N-Benzyl-N-[3-(N-2-methyl-2-propenyl-toluenesulfonamido)propyl]-N-(3-toluenesulfonamidopropyl)amine dihydrogen sulfate [Compound 214]
CC50 [2, 20]: > 150000 nM
CC50 [2, 21]: 68500 nM
CC50 ([2]; with HCMV plaque reduction assay, read-out: Human Cytomegalovirus CC50 (values in parentheses)): 147000 nM
EC50 (Varicella Zoster Virus): 25200 nM
EC50 (Human Cytomegalovirus [19]): 20500 nM
EC50 (Human Cytomegalovirus [6]): 2200 nM

— patent US6342492B1, “Anti-viral triaza compounds and compositions” (The Research Foundation of State University of New York, priority 1995, dated 2002)
